Holding throughout (assay type): functional, Mesocricetus auratus
In assay [1] the test system is Syrian golden hamster. The experiment in a line: Lowering of plasma triglyceride level in dyslipidemic male syrian hamsters at 50 mg/kg, po.
Assay [2] deals with Syrian golden hamster. Briefly: Lowering of free fatty acids in dyslipidemic male syrian hamsters at 50 mg/kg, po.
Assay [3] concerns Syrian golden hamster. The experiment in a line: Lowering of total cholesterol level in dyslipidemic male syrian hamsters at 50 mg/kg, po.
Assay [4] relates to Syrian golden hamster. The experiment in a line: Increase in ratio between HDL-cholesterol and total cholesterol in dyslipidemic male syrian hamsters at 50 mg/kg, po.
Assay [5] has as its system Syrian golden hamster. Briefly: Lowering of glycerol in dyslipidemic male syrian hamsters at 50 mg/kg, po.
Assay [6] relates to Syrian golden hamster. The experiment in a line: Increase in HDL-cholesterol in dyslipidemic male syrian hamsters at 50 mg/kg, po.

The structures appear in SMILES notation.

Take `C[C@@H]([C@H](C)O)[C@H](N)C(=O)O`: the Activity in assay [1] was 33%; in assay [2], 14%; in assay [3], 22%; in assay [5], 4.9%; in assay [6] it was 8.7%. For the same compound, the Ratio in assay [4] was found to be 39%.

The record behind these values is ChEMBL document CHEMBL1147758, “4-hydroxyisoleucine an unusual amino acid as antidyslipidemic and antihyperglycemic agent” (2006).
